From the supplement of paper PMC10307832

What was measured:
Test in all cases: relative viability (nuclei count vs DMSO), 5 days (fraction); higher = more cells survive
[1] = compound: C1CCC(CC1)N(CCNCCC2=C3C(=C(C=C2)O)NC(=O)CO3)C(=O)CCNCCC4=CC(=C(C=C4)Cl)Cl [AZ505] + CC(C)C[C@H](NC(=O)[C@H](Cc1ccccc1)NC(=O)c1cnccn1)B(O)O [Bortezomib] (partner 0.002 µM)
Summary of the method: (§1)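 Each reported value is a median over duplicate plates. It expresses relative viability: treated-well nuclei count divided by vehicle-well nuclei count. Lung cancer cell lines in 1536-well plates were dosed by pin tool a day after seeding, alone with one drug or with a fixed anchor-drug dose plus five library-drug doses (not always all listed) in √10 steps, and nuclei were counted after 5 days.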

[2] = compound: C1CCC(CC1)N(CCNCCC2=C3C(=C(C=C2)O)NC(=O)CO3)C(=O)CCNCCC4=CC(=C(C=C4)Cl)Cl [AZ505] + Nc1ncn([C@H]2C[C@H](O)[C@@H](CO)O2)c(=O)n1 [Decitabine] (partner 2 µM)
Summary of the method: as §1

[3] = compound: Cn1c(=O)n(-c2ccc(C(C)(C)C#N)cc2)c2c3cc(-c4cnc5ccccc5c4)ccc3ncc21 [Dactolisib] + CCNC(=O)c1noc(-c2cc(C(C)C)c(O)cc2O)c1-c1ccc(CN2CCOCC2)cc1 [Luminespib] (partner 0.01 µM)
Summary of the method: as §1

[4] = compound: Cn1c(=O)n(-c2ccc(C(C)(C)C#N)cc2)c2c3cc(-c4cnc5ccccc5c4)ccc3ncc21 [Dactolisib] + Cc1nc(Nc2ncc(C(=O)Nc3c(C)cccc3Cl)s2)cc(N2CCN(CCO)CC2)n1 [Dasatinib] (partner 0.075 µM)
Summary of the method: as §1

In the case of NCI-H1299, the relative viability ([1]; first compound 0.08 µM) is reported as 1.01, the relative viability ([1]; first compound 0.253 µM) is reported as 1.05 and the relative viability ([1]; first compound 0.8 µM) is reported as 0.926. For the same cell line, the relative viability ([1]; first compound 2.53 µM) was 0.998 and the relative viability ([1]; first compound 8 µM) was 1.01.
NCI-H1395 showed a relative viability ([2]; first compound 0.08 µM) of 0.745, a relative viability ([2]; first compound 0.8 µM) of 0.664 and a relative viability ([2]; first compound 2.53 µM) of 0.699. The relative viability ([2]; first compound 8 µM) was 0.767, the relative viability ([3]; first compound 0.002 µM) was 0.544 and the relative viability ([3]; first compound 0.006325 µM) was 0.681. It also gave a relative viability ([3]; first compound 0.02 µM) of 0.678, a relative viability ([3]; first compound 0.06325 µM) of 0.434 and a relative viability ([3]; first compound 0.2 µM) of 0.43. It also gave a relative viability ([4]; first compound 0.002 µM) of 0.405, a relative viability ([4]; first compound 0.006325 µM) of 0.405 and a relative viability ([4]; first compound 0.02 µM) of 0.392. For the same cell line, the relative viability ([4]; first compound 0.06325 µM) was 0.381 and the relative viability ([4]; first compound 0.2 µM) was 0.355.
Work on NCI-H1563 yielded a relative viability ([1]; first compound 0.08 µM) of 0.846, a relative viability ([1]; first compound 0.253 µM) of 0.743 and a relative viability ([1]; first compound 0.8 µM) of 0.83. The relative viability ([1]; first compound 2.53 µM) was 0.766, the relative viability ([1]; first compound 8 µM) was 0.922 and the relative viability ([3]; first compound 0.002 µM) was 0.535. It also gave a relative viability ([3]; first compound 0.006325 µM) of 0.532, a relative viability ([3]; first compound 0.02 µM) of 0.511 and a relative viability ([3]; first compound 0.06325 µM) of 0.47. For the same cell line, the relative viability ([3]; first compound 0.2 µM) was 0.507, the relative viability ([4]; first compound 0.002 µM) was 0.498 and the relative viability ([4]; first compound 0.006325 µM) was 0.466. It also gave a relative viability ([4]; first compound 0.02 µM) of 0.47, a relative viability ([4]; first compound 0.06325 µM) of 0.474 and a relative viability ([4]; first compound 0.2 µM) of 0.458.
NCI-H1623 showed a relative viability ([3]; first compound 0.002 µM) of 0.604, a relative viability ([3]; first compound 0.006325 µM) of 0.491 and a relative viability ([3]; first compound 0.02 µM) of 0.462. It also gave a relative viability ([3]; first compound 0.06325 µM) of 0.308, a relative viability ([3]; first compound 0.2 µM) of 0.275 and a relative viability ([4]; first compound 0.002 µM) of 0.518. For the same cell line, the relative viability ([4]; first compound 0.006325 µM) was 0.585, the relative viability ([4]; first compound 0.02 µM) was 0.528 and the relative viability ([4]; first compound 0.06325 µM) was 0.412. The relative viability ([4]; first compound 0.2 µM) was 0.379.
NCI-H1648 showed a relative viability ([2]; first compound 0.253 µM) of 0.508, a relative viability ([2]; first compound 0.8 µM) of 0.538 and a relative viability ([2]; first compound 2.53 µM) of 0.615. For the same cell line, the relative viability ([2]; first compound 8 µM) was 0.522.
NCI-H1703 showed a relative viability ([1]; first compound 0.08 µM) of 0.351, a relative viability ([1]; first compound 0.253 µM) of 0.383 and a relative viability ([1]; first compound 0.8 µM) of 0.366. The relative viability ([1]; first compound 2.53 µM) was 0.358 and the relative viability ([1]; first compound 8 µM) was 0.458.
For NCI-H1793, the relative viability ([2]; first compound 0.08 µM) was 0.588, the relative viability ([2]; first compound 0.253 µM) was 0.506 and the relative viability ([2]; first compound 0.8 µM) was 0.454. The relative viability ([2]; first compound 2.53 µM) was 0.544, the relative viability ([2]; first compound 8 µM) was 0.549 and the relative viability ([3]; first compound 0.002 µM) was 0.155. For the same cell line, the relative viability ([3]; first compound 0.006325 µM) was 0.15, the relative viability ([3]; first compound 0.02 µM) was 0.164 and the relative viability ([3]; first compound 0.06325 µM) was 0.163. It also gave a relative viability ([3]; first compound 0.2 µM) of 0.165, a relative viability ([4]; first compound 0.002 µM) of 0.388 and a relative viability ([4]; first compound 0.006325 µM) of 0.312. The relative viability ([4]; first compound 0.02 µM) was 0.253, the relative viability ([4]; first compound 0.06325 µM) was 0.16 and the relative viability ([4]; first compound 0.2 µM) was 0.134.
Cell Line NCI-H1944 has a relative viability ([2]; first compound 0.08 µM) of 0.436, a relative viability ([2]; first compound 0.253 µM) of 0.465 and a relative viability ([2]; first compound 0.8 µM) of 0.414. It also gave a relative viability ([2]; first compound 2.53 µM) of 0.475, a relative viability ([2]; first compound 8 µM) of 0.418 and a relative viability ([3]; first compound 0.002 µM) of 0.957. The relative viability ([3]; first compound 0.006325 µM) was 0.724, the relative viability ([3]; first compound 0.02 µM) was 0.714 and the relative viability ([3]; first compound 0.06325 µM) was 0.288. For the same cell line, the relative viability ([3]; first compound 0.2 µM) was 0.263, the relative viability ([4]; first compound 0.002 µM) was 0.22 and the relative viability ([4]; first compound 0.006325 µM) was 0.2. It also gave a relative viability ([4]; first compound 0.02 µM) of 0.212, a relative viability ([4]; first compound 0.06325 µM) of 0.165 and a relative viability ([4]; first compound 0.2 µM) of 0.148.
With NCI-H2170 the relative viability ([2]; first compound 0.08 µM) was 0.469, the relative viability ([2]; first compound 0.253 µM) was 0.466 and the relative viability ([2]; first compound 0.8 µM) was 0.422. The relative viability ([2]; first compound 2.53 µM) was 0.482, the relative viability ([2]; first compound 8 µM) was 0.453 and the relative viability ([3]; first compound 0.002 µM) was 0.512. The relative viability ([3]; first compound 0.006325 µM) was 0.805, the relative viability ([3]; first compound 0.02 µM) was 0.722 and the relative viability ([3]; first compound 0.06325 µM) was 0.435. It also gave a relative viability ([3]; first compound 0.2 µM) of 0.195, a relative viability ([4]; first compound 0.002 µM) of 0.644 and a relative viability ([4]; first compound 0.006325 µM) of 0.538. For the same cell line, the relative viability ([4]; first compound 0.02 µM) was 0.652, the relative viability ([4]; first compound 0.06325 µM) was 0.486 and the relative viability ([4]; first compound 0.2 µM) was 0.289.
NCI-H2228 showed a relative viability ([1]; first compound 0.08 µM) of 0.907, a relative viability ([1]; first compound 0.253 µM) of 1.15 and a relative viability ([1]; first compound 0.8 µM) of 0.856. For the same cell line, the relative viability ([1]; first compound 2.53 µM) was 0.864, the relative viability ([1]; first compound 8 µM) was 0.828 and the relative viability ([3]; first compound 0.002 µM) was 0.15. It also gave a relative viability ([3]; first compound 0.006325 µM) of 0.143, a relative viability ([3]; first compound 0.02 µM) of 0.112 and a relative viability ([3]; first compound 0.06325 µM) of 0.176. It also gave a relative viability ([3]; first compound 0.2 µM) of 0.128, a relative viability ([4]; first compound 0.002 µM) of 0.629 and a relative viability ([4]; first compound 0.006325 µM) of 0.441. For the same cell line, the relative viability ([4]; first compound 0.02 µM) was 0.339, the relative viability ([4]; first compound 0.06325 µM) was 0.162 and the relative viability ([4]; first compound 0.2 µM) was 0.141.
NCI-H2342 showed a relative viability ([2]; first compound 0.08 µM) of 0.792, a relative viability ([2]; first compound 0.253 µM) of 0.759 and a relative viability ([2]; first compound 0.8 µM) of 0.728. For the same cell line, the relative viability ([2]; first compound 2.53 µM) was 0.734, the relative viability ([2]; first compound 8 µM) was 0.841 and the relative viability ([3]; first compound 0.002 µM) was 0.677. The relative viability ([3]; first compound 0.006325 µM) was 0.634, the relative viability ([3]; first compound 0.02 µM) was 0.653 and the relative viability ([3]; first compound 0.06325 µM) was 0.495. The relative viability ([3]; first compound 0.2 µM) was 0.437, the relative viability ([4]; first compound 0.002 µM) was 0.298 and the relative viability ([4]; first compound 0.006325 µM) was 0.294. It also gave a relative viability ([4]; first compound 0.02 µM) of 0.348, a relative viability ([4]; first compound 0.06325 µM) of 0.31 and a relative viability ([4]; first compound 0.2 µM) of 0.284.
SK-MES-1 showed a relative viability ([2]; first compound 0.08 µM) of 0.369, a relative viability ([2]; first compound 0.253 µM) of 0.409 and a relative viability ([2]; first compound 0.8 µM) of 0.392. For the same cell line, the relative viability ([2]; first compound 2.53 µM) was 0.412, the relative viability ([2]; first compound 8 µM) was 0.439 and the relative viability ([3]; first compound 0.002 µM) was 0.828. For the same cell line, the relative viability ([3]; first compound 0.006325 µM) was 0.744, the relative viability ([3]; first compound 0.02 µM) was 0.349 and the relative viability ([3]; first compound 0.06325 µM) was 0.286. It also gave a relative viability ([3]; first compound 0.2 µM) of 0.171, a relative viability ([4]; first compound 0.002 µM) of 0.433 and a relative viability ([4]; first compound 0.006325 µM) of 0.375. The relative viability ([4]; first compound 0.02 µM) was 0.307, the relative viability ([4]; first compound 0.06325 µM) was 0.222 and the relative viability ([4]; first compound 0.2 µM) was 0.147.
For SW 900, the relative viability ([2]; first compound 0.08 µM) was 0.537, the relative viability ([2]; first compound 0.253 µM) was 0.545 and the relative viability ([2]; first compound 0.8 µM) was 0.419. For the same cell line, the relative viability ([2]; first compound 2.53 µM) was 0.462, the relative viability ([2]; first compound 8 µM) was 0.489 and the relative viability ([3]; first compound 0.002 µM) was 0.17. For the same cell line, the relative viability ([3]; first compound 0.006325 µM) was 0.2, the relative viability ([3]; first compound 0.02 µM) was 0.157 and the relative viability ([3]; first compound 0.06325 µM) was 0.174. It also gave a relative viability ([3]; first compound 0.2 µM) of 0.169, a relative viability ([4]; first compound 0.002 µM) of 0.431 and a relative viability ([4]; first compound 0.006325 µM) of 0.455. For the same cell line, the relative viability ([4]; first compound 0.02 µM) was 0.694, the relative viability ([4]; first compound 0.06325 µM) was 0.265 and the relative viability ([4]; first compound 0.2 µM) was 0.174.
